The supplement of paper PMC10477900
Structures can show the parent of a compound that is named as a salt.

Tests used:
HCT116 [1] = conditions: 72 h
Method: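 HCT116 control and MTA1-KO (CRISPR) HCT116 cells were seeded in 384-well plates (800 cells/well), treated 16 h later with 237 metabolism-related anticancer drugs at five doses (10 uM, 2 uM, 400 nM, 80 nM, 16 nM) for 72 h, two replicates; viability by CCK8. Values are % inhibition of viability relative to untreated cells, plus fitted IC50.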

HCT116 [2] = assay: viability inhibition vs untreated; higher = more cytotoxic; conditions: 72 h

Row | SMILES | IC50 (HCT116 [1]; genotype: MTA1-KO) [µM] | IC50 (HCT116 [1]; genotype: control) [µM] | viability inhibition (HCT116 [2]; genotype: MTA1-KO, 16 nM) [%] | viability inhibition (HCT116 [2]; genotype: MTA1-KO, 80 nM) [%] | viability inhibition (HCT116 [2]; genotype: MTA1-KO, 400 nM) [%] | viability inhibition (HCT116 [2]; genotype: MTA1-KO, 2000 nM) [%] | viability inhibition (HCT116 [2]; genotype: MTA1-KO, 10000 nM) [%] | viability inhibition (HCT116 [2]; genotype: control, 16 nM) [%] | viability inhibition (HCT116 [2]; genotype: control, 80 nM) [%] | viability inhibition (HCT116 [2]; genotype: control, 400 nM) [%] | viability inhibition (HCT116 [2]; genotype: control, 2000 nM) [%] | viability inhibition (HCT116 [2]; genotype: control, 10000 nM) [%]
1 | O=c1cc(-c2ccc(O)c(O)c2)oc2cc(O)cc(O)c12 [Luteolin] | > 10 | > 10 | -5.43 | -9.09 | -11.5 | -2.12 | 7.81 | 2.79 | 2.36 | 3.47 | 12.7 | 12.7
2 | CC(C)[C@]12O[C@H]1[C@@H]1O[C@]13[C@]1(O[C@H]1C[C@H]1C4=C(CC[C@@]13C)C(=O)OC4)[C@@H]2O [Triptolide] | < 0.016 | < 0.016 | 58.4 | 92.8 | 88.9 | 90.8 | 92.2 | 67.7 | 105 | 90.1 | 89.5 | 91.8
3 | CCCC(=O)O[C@]1(C(=O)CO)CC[C@H]2[C@@H]3CCC4=CC(=O)CC[C@]4(C)[C@H]3[C@@H](O)C[C@@]21C [Hydrocortisone butyrate] | > 10 | > 10 | -3.78 | -0.209 | -6.9 | -15.3 | 17.3 | -10.8 | -15 | -3.07 | -16.7 | 41.3
4 | OCc1ccc(-c2ccc(-c3ccc(CO)s3)o2)s1 [RITA] | 1.21 | 0.153 | 7.71 | 35 | 91.7 | 101 | 99 | -0.895 | 27.2 | 72.5 | 96.3 | 104
5 | O=C(O)c1cccnc1Nc1cccc(C(F)(F)F)c1 [Niflumic acid] | > 10 | > 10 | -15.2 | -17.4 | -11.9 | -15.8 | -9.84 | 3.66 | 11.1 | -0.91 | -2.33 | 0.571
6 | C[C@H]1CCC/C=C/[C@@H]2C[C@H](O)C[C@H]2[C@H](O)/C=C/C(=O)O1 [Brefeldin A] | 0.255 | 0.166 | -15.6 | -20.1 | 104 | 105 | 105 | 4.87 | -4.17 | 112 | 109 | 110
7 | COc1ccccc1OCC(O)CN1CCN(CC(=O)Nc2c(C)cccc2C)CC1 (stereo not drawn) [Ranolazine] | 6.87 | > 10 | -0.081 | 5.69 | 8.98 | 2.99 | 74.3 | -8.25 | -12.6 | -15.3 | -15 | 8.96
8 | O=C(O)c1ccc(C=C2SC(=S)N(c3cccc(C(F)(F)F)c3)C2=O)cc1 [CFTRinh172] | > 10 | 5.31 | -5.28 | -12.6 | -0.878 | -4.39 | 25.2 | -6.21 | -18.3 | -11.9 | 16 | 64.3
9 | c1cc(-c2cnn3cc(-c4ccc(OCCN5CCCCC5)cc4)cnc23)ccn1 [Dorsomorphin] | > 10 | > 10 | 1.25 | -13.4 | -12.4 | -11.7 | -1.25 | 19.5 | 29.9 | 18.4 | 20.9 | 19.6
10 | CCCCCCCCCCC[C@@H](C[C@@H]1OC(=O)[C@H]1CCCCCC)OC(=O)[C@H](CC(C)C)NC=O [Orlistat] | > 10 | > 10 | -6.57 | -2.27 | -2.16 | -13.4 | 15.7 | 4.58 | -13.3 | -7.69 | -2.81 | 37
11 | C=C(C)[C@H]1Cc2c(ccc3c2O[C@@H]2COc4cc(OC)c(OC)cc4[C@@H]2C3=O)O1 [Rotenone] | 0.0743 | < 0.016 | 16.6 | 34.1 | 35.3 | 43.4 | 51.6 | 63.1 | 57.1 | 46.9 | 45.4 | 65.4
12 | CC(N)=NCc1cccc(CN)c1 [1400W dihydrochloride] | > 10 | > 10 | 5.1 | -4.81 | -3.44 | -9.66 | 42.6 | 5.38 | -11.1 | -13.9 | -9.74 | 2.89
13 | C=C1C(=O)O[C@H]2[C@H]1CC/C(C)=C/CC[C@@]1(C)O[C@@H]21 [Parthenolide] | 2.9 | 6.58 | 13.7 | 23.4 | 17.3 | 27.8 | 114 | -4.45 | 2.37 | -14.2 | -17.8 | 100
14 | O=[N+]([O-])c1ccc(Nc2nc(N3CCOCC3)nc(N3CCOCC3)n2)cc1 [MHY1485] | > 10 | 4.59 | 7.65 | 14.4 | 13.3 | 8.16 | 45.5 | -9.75 | 7.66 | 14.9 | 23.1 | 74.8
15 | CN(Cc1ccccc1)c1ccc2cc(C(=O)O)c(=O)oc2c1 [7ACC2] | > 10 | 0.373 | -27.3 | -0.988 | 20.9 | 24.6 | 29 | 15 | -0.73 | 50.7 | 64.6 | 80.8
16 | NC(N)=NC(N)=NCCc1ccccc1 [Phenformin hydrochloride] | > 10 | > 10 | -11.4 | -9.26 | -10.6 | -4.27 | 20.1 | 12.5 | 18.4 | 9.46 | 8.84 | 42.4
17 | CN(C)C1CCN(C(=O)c2ccc(NC(=O)Nc3ccc(-c4nc(N5CCOCC5)nc(N5CCOCC5)n4)cc3)cc2)CC1 [Gedatolisib] | 0.187 | 0.305 | -5.92 | 17.3 | 63.7 | 80.1 | 82.8 | 19.9 | 26.7 | 68.6 | 88.3 | 103
18 | N#Cc1c(O)c2c(-c3ccc(-c4ccccc4O)cc3)csc2[nH]c1=O | > 10 | > 10 | 7.25 | 0.475 | 5.93 | 6.59 | 21.8 | -9.79 | -10.7 | -8.84 | -17.7 | 3.16
19 | CCC(=O)N1CCN(c2ccc(-n3c(=O)ccc4cnc5ccc(-c6cnc7ccccc7c6)cc5c43)cc2C(F)(F)F)CC1 [Torin 1] | 0.324 | 1.8 | 2.4 | 8.65 | 52 | 70.7 | 80.9 | -14.3 | -3.02 | 4.25 | 56 | 62.3
20 | COc1ccc2[nH]c([S@@+]([O-])Cc3ncc(C)c(OC)c3C)nc2c1 [Esomeprazole Sodium] | > 10 | > 10 | 3.92 | 2.7 | 7.98 | 6.88 | 10.1 | 27 | 8.16 | -3.32 | 4.21 | 12
21 | COc1ccc2[nH]cc(CCNC(C)=O)c2c1 [Melatonine] | > 10 | > 10 | 11.6 | 12.1 | 6.76 | 7.43 | 8.55 | 10.2 | 9.39 | 9.78 | 24.1 | 14.5
22 | Cc1c(-c2cnccn2)ssc1=S [Oltipraz] | > 10 | > 10 | -30.8 | -24.9 | -26.7 | -26.6 | -33.9 | -15.3 | -6.71 | -20.1 | -19.1 | -6.16
23 | CC[C@H](C)C(=O)O[C@H]1C[C@@H](C)C=C2C=C[C@H](C)[C@H](CC[C@@H]3C[C@@H](O)CC(=O)O3)[C@H]21 [Lovastatin] | > 10 | > 10 | -10.2 | -12.6 | -7.31 | -11.7 | -8.01 | 2.13 | -3.28 | 8.89 | 5.64 | 29.4
24 | O=c1c(O)c(-c2ccc(O)cc2)oc2cc(O)cc(O)c12 [Kaempferol] | > 10 | > 10 | 9.79 | 3.08 | 3.45 | 10.9 | 39 | 7.5 | 18.7 | -0.112 | 8.84 | 23.1
25 | c1ccc(-c2ccc(C(c3ccccc3)n3ccnc3)cc2)cc1 (stereo not drawn) [Bifonazole] | > 10 | > 10 | -14.7 | -10.9 | -14.8 | -16.2 | 16.8 | 7.85 | -6.02 | -12.2 | -12 | 18.9
26 | O=C(Cc1ccccc1)Nc1nnc(CCSCCc2nnc(NC(=O)Cc3ccccc3)s2)s1 [BPTES] | > 10 | > 10 | -12.8 | -12.2 | 0.728 | 8.71 | 41.5 | -3.88 | -3.14 | -1.6 | -0.809 | -19.2
27 | COCCNC(=O)Nc1ccc2nc(-c3cccs3)c(-c3cccs3)nc2c1 [Ac-CoA Synthase Inhibitor1] | > 10 | > 10 | -8.17 | 14.9 | 15 | 10.1 | 6.2 | 3.53 | 9.39 | -0.277 | -10.1 | 8.5
28 | Cc1nc(Nc2cnn(C3CCNCC3)c2)nc2c1N(C)C(=O)c1cc3ccccc3cc1N2C [HTH-01-015] | 7.99 | > 10 | -1.49 | 5.48 | -1.32 | 5.37 | 62.5 | 2.33 | 10.7 | 23.3 | 17.9 | 40.7
29 | S=C(N/N=C1/CCCc2cccnc21)N1CCN(c2ccccn2)CC1 [COTI2] | 0.246 | 1.07 | 5.92 | 0.177 | 50.3 | 49.7 | 67.4 | 8.87 | -13.6 | -3.5 | 87.4 | 88.4
